# Measurements taken from patent US20180116993A1, “MODULATORS OF FARNESOID X RECEPTOR AND METHODS FOR THE USE THEREOF” (XIAMEN UNIVERSITY, priority 2015, published 2018).
# Marks after values point to notes of the source that are not given here.
# Assays:
# [1] = test system: SOD2; assay: mRNA level of antioxidant gene SOD2 in livers of db/db mice; type: in vivo, mouse; conditions: 10 mg/kg, vehicle 1 ± 0.3
# [2] = test system: mice with APAP-induced liver injury; assay: Acetaminophen (APAP)-induced liver injury in mouse; type: in vivo; conditions: 5 mg/kg i.p. once daily for five days, then APAP 500 mg/kg, 8-week age mice; for ALT (U/L): serum, vehicle 786 ± 111
# Text: Methods: Acetaminophen (APAP)-induced liver injury in mouse is a commonly used model to study drugs protecting liver. Overdose of APAP causes liver injury by inducing the production of reactive oxygen species and reactive nitrogen species, and excessive consumption of reductive substances such as antioxidant glutathione (GSH), leading to the reduction of GSH in vivo, and the following upregulation of the activities of the aspartate aminotransferase (AST), the alanine aminotransferase (ALT) and the lactate dehydrogenase (LDH), which will result in liver inflammation and necrosis. In this example, the APAP-induced liver injury was used to detect the protection and repair functions of our compounds in liver injury.
# One-year or 8-week age mice were maintained under environmentally controlled conditions with free access to standard chow diet and water. Animal experiments were conducted in the barrier facility of the Laboratory Animal Center, Xiamen University, approved by the Institutional Animal Use and Care Committee of Xiamen University, China.
# Compounds were solved with DMSO and then prepared to work concentration with 40% HBC (2-hydroxypropyl-β-cyclodextrin) in which the final work concentrations of compounds are 5 mg/kg body weight, 10 mg/kg or 20 mg/kg in 100 μl injection volume and the concentration of DMSO is 10%. Compounds were intraperitoneal (i.p.) injected once daily for five days. For Feroline and Tschimganine, one-year age mice were used in the experiment. For other compounds, 8-week age mice were used. […] For Tschimganine, 20 mg/kg dose of compound was administered to mice. For other compounds, 5 mg/kg dose of compounds were administered to mice. Six hours after the fifth injection, 500 mg/kg body weight of APAP solved in PBS was i.p. injected to the mice. 24 hours later, mice were sacrificed. Part of each liver was fixed in 4% paraformaldehyde, and the liver histology characterization was analyzed by haematoxylin and eosin (H&E) staining with paraffin-embedded sections by standard procedures. Other liver tissues were collected for detecting the GSH levels, and the mRNA expression of genes involved in liver repairing, such as GPX1 and UGT1a1, by RT-PCR. The serums were collected to measure enzymes activities including AST, ALT and LDH. For the synthetic derivatives, ALT and GSH were selected as indicating markers for the function of these compounds.
# [3] = test system: inflammatory cytokines in tissues of db/db mice; assay: Inflammatory cytokine mRNA levels in tissues of high-fat diet fed db/db mice (RT-PCR); type: in vivo, mouse; conditions: 5 mg/kg; for mRNA level of iNOS (fold), Liver tissue: vehicle 1.06 ± 0.14; for mRNA level of iNOS (fold), Colon tissue: vehicle 1.12 ± 0.23; for WAT, mRNA level (fold), IL-1β / WAT, mRNA level (fold), TNFα: white adipose tissue; for WAT, mRNA level (fold), IL-1β: vehicle 1.06 ± 0.2; for WAT, mRNA level (fold), TNFα: vehicle 1.15 ± 0.13
# Text: In this example, we detected the levels of various inflammatory cytokines including iNOS, IFNγ, TGFβ, TNFα, COX2, IL-1β, IL-6, SAA1, MIP-1α and CD36 in liver, kidney, white adipose tissue (WAT) in various mice models, including wild type mice treated with APAP in example 4, high-fat diet fed diabetic and obesity db/db and KK-Ay mice in example 5, high-fat diet fed wild-type mice in Example 5, as well as in primary hepatocytes with LPS induced inflammation, using RT-PCR.
# [4] = test system: db/db mice; assay: Serum/blood metabolic parameters in high-fat diet fed db/db mice; type: in vivo, mouse; conditions: 10 mg/kg, treat for 10 days, vehicle 527 ± 63
# Outline: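 db/db mice aged 8–10 weeks on high-fat diet received compounds i.p. once daily for 7, 10, 11 or 14 days, then were fasted 6 h and sacrificed. Serum glucose (glucose oxidase), insulin (ELISA), cholesterol, FFA and triglycerides measured by kits; some blood glucose by tail strips after the 6th injection and 16 h fast.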
# [5] = test system: db/db mice; assay: Hepatic triglyceride, liver histology, serum ALT and ALP in high-fat diet fed db/db mice; type: in vivo, mouse; conditions: for Hepatic triglyceride (mM/g): vehicle 148 ± 14; for Serum ALP (U/L): vehicle 129 ± 15
# Outline: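 High-fat diet fed db/db mice aged 8-10 weeks dosed 10 mg/kg compound once daily for 10 days. Liver sections stained with H&E and 0.3% oil red O; hepatic triglyceride measured by tissue assay kit; serum ALP and ALT activities measured by kit.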
# [6] = 10 mg/kg for 10 days, vehicle 377 ± 48, Table 15
# [7] = 10 mg/kg once daily for 10 days
# [8] = 10 mg/kg once daily for 10 days, vehicle 377 ± 48, Table 17
SMILES,mRNA level of SOD2 (fold) [1],ALT (U/L) [2],"mRNA level of iNOS (fold), Liver tissue [3]","mRNA level of iNOS (fold), Colon tissue [3]",Hepatic GSH (μM/g liver tissue) ([2]; vehicle 9.1 ± 0.5),"WAT, mRNA level (fold), IL-1β [3]","WAT, mRNA level (fold), TNFα [3]",Serum Glucose (mg/dl) [4],Hepatic triglyceride (mM/g) ([5]; 10 mg/kg for 10 days),"Serum ALT (U/L) [5, 6]","Serum ALP (U/L) [5, 7]","Serum ALT (U/L) [5, 8]"
"Cc1cc(C(=O)OC2CC3CCC2(C)C3(C)C)ccc1N (stereo not drawn) [XD-4, 1,7,7-trimethyl-bicyclo[2.2.1]-heptan-2-yl 4-amino-3-methylbenzoate]",1.6 ± 0.1 ^b fold,236 ± 65 ^a U/L,0.41 ± 0.1^a fold,0.53 ± 0.37^a fold,–,–,–,–,–,–,–,–
"CC1(C)C2CCC1(C)C(OC(=O)c1ccc(N)cc1)C2 (stereo not drawn) [XD-5, 1,7,7-trimethyl-bicyclo[2.2.1]-heptan-2-yl 4-aminobenzoate]",–,197 ± 57 ^b U/L,–,–,12.8 ± 0.3 ^b μM/g liver tissue,0.33 ± 0.2^a fold,0.56 ± 0.17^a fold,–,–,–,–,–
"O=C(OC1CCCCCCC1)c1ccc(O)cc1 [XD-10, cyclooctyl 4-hydroxybenzoate]",–,114 ± 31 ^c U/L,0.52 ± 0.3^a fold,0.49 ± 0.21^a fold,–,–,–,–,–,–,–,–
"Nc1ccc(C(=O)OC2CCCCCCC2)cc1 [XD-16, cyclooctyl 4-aminobenzoate]",1.5 ± 0.1 ^b fold,127 ± 46 ^b U/L,0.39 ± 0.18^a fold,0.42 ± 0.22^a fold,–,–,–,404 ± 46^a mg/dl,81 ± 23 ^a mM/g,104 ± 33 ^a U/L,88 ± 10^b U/L,104 ± 33^a U/L
"Cc1cc(C(=O)OC2CCCCCCC2)ccc1O [XD-17, cyclooctyl 4-hydroxy-3-methylbenzoate]",1.8 ± 0.3 ^a fold,117 ± 39 ^c U/L,–,–,–,–,–,–,–,–,76 ± 17^a U/L,185 ± 51^a U/L
"CC1(C)C2CCC1(C)C(OC(=O)C1CCC(O)CC1)C2 (stereo not drawn) [XD-20, 1,7,7-trimethyl-bicyclo[2.2.1]-heptan-2-yl 4-hydroxy-cyclohexane-carboxylate]",–,–,0.51 ± 0.2^a fold,0.5 ± 0.18^a fold,–,–,–,396 ± 55^a mg/dl,60 ± 15^b mM/g,115 ± 29 ^a U/L,73 ± 19^a U/L,115 ± 29^a U/L
"Nc1ccc(C(=O)OC2CCC3CCCCC3C2)cc1 (stereo not drawn) [XD-23, decahydro-naphthalen-2-yl 4-aminobenzoate]",–,130 ± 62 ^a U/L,0.2 ± 0.1^a fold,0.55 ± 0.29^a fold,–,0.64 ± 0.13^a fold,0.6 ± 0.21^a fold,–,–,–,–,–
